Data set [1] can be described thus: Brain/cerebrospinal fluid migration test. In kind it is in vivo, SD male rats. Conditions: rat; for concentration at 2 h / concentration at 30 min: male, SD. On the procedure: A test compound was orally or intravenously administered to SD male rats (7 to 10 week-age, 200 to 400 g). While they were anesthetized with ether for a predetermined period of time, the whole blood was collected from them via their abdominal aorta, using a heparin-processed syringe. Then, their occipital skin was cut open, and a dental 30 G needle was stuck into the cervical vertebrae and further into the subarachnoid cavity. Via the tube connected to the dental 30 G needle, from 50 to 100 μL of the cerebrospinal fluid was collected in a 1 mL-syringe, and then the brain was taken out. The blood sample was centrifuged (4° C., 6000 rpm, 10 min), and the resulting plasma was stirred with ethanol of three times (including an internal standard substance) added thereto. The brain sample was homogenized with 2 mL of water added thereto, and a part of it was taken out and stirred with ethanol of three times (including an internal standard substance) added thereto. The cerebrospinal fluid was homogenized with 3 times its volume of ethanol (including an internal standard substance) added thereto. The above samples were left at −20° C. for 20 minutes, then centrifuged (4° C., 12,000 g, 10 min), and the supernatant was analyzed through LC/MS/MS. According to a relative calibration curve method, the concentration of the test compound in the plasma, in the brain and in the cerebrospinal fluid was determined.

The target of data set [2] is T1, human histamine-3 receptor (Homo sapiens, UniProt Q9Y5N1).
T1 construct: expressed in transfected cells; host or cells: HEK293 and CHO-K1 (American Type Culture Collection)
Briefly: Histamine analogue-binding inhibition test ([3H]N-α-methylhistamine, membrane specimen). Particulars: result in words.
Method: A membrane specimen prepared from the cells having expressed a histamine-3 receptor was incubated in an assay buffer (50 mM Tris buffer, pH 7.4) along with a test compound and 20,000 cpm [^3H]N-α-methylhistamine (by NEN) therein, at 25° C. for 2 hours, and then filtered through a glass filter GF/C. After washed with 50 mM Tris buffer (pH 7.4), the radioactivity on the glass filter was determined. The non-specific binding was determined in the presence of 10 μM thioperamide (by Sigma), and the 50% inhibitory concentration (IC50) of the test compound to the specific N-α-methylhistamine binding was calculated [see Molecular Pharmacology, Vol. 55, p.

Read-outs that look alike come from different tables or passages of the source.

3 compounds from US7960394B2, “Quinazoline derivative” (Banyu Pharmaceutical Co., Ltd., priority 2004, dated 2011) can be followed below.

T1 sequence (Q9Y5N1 whole entry): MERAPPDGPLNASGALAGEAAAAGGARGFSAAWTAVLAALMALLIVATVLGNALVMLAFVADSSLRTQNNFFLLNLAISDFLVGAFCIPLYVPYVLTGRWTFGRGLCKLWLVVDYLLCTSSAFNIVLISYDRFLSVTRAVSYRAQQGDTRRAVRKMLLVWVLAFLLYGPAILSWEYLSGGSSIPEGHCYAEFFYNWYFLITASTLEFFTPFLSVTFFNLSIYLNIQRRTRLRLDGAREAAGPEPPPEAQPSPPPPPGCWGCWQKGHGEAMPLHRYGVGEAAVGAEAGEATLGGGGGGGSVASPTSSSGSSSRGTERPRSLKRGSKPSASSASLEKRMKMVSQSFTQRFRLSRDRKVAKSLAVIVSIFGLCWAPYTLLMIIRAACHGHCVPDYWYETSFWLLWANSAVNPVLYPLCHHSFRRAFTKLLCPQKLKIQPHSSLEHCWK

As to `Cn1c(-c2ccc(OC3CCN(C4CC4)CC3)cc2)nc2ccccc2c1=O` [Example 89, 3-Methyl-2-[4-(1-cyclopropyl-4-piperidinyloxy)-phenyl]-4(3H)-quinazolinone], the concentration at 2 h was 27 nM in data set [1] (cerebrospinal fluid, oral administration 10 mg/kg, in 2 hours, read-out: concentration in the cerebrospinal fluid) and 700 nM in data set [1] (plasma, oral administration 10 mg/kg, in 2 hours, read-out: concentration in the plasma). For the same compound, the “concentration in the brain” value in data set [1] (oral administration 10 mg/kg, in 2 hours) is listed as 1.45 nmol/g.
`COc1ccnc2c(=O)n(C)c(-c3ccc(OC4CCN(C5CCC5)CC4)cc3)nc12` [Example 59, 2-{4-[(1-cyclobutylpiperidin-4-yl)oxy]phenyl}-8-methoxy-3-methylpyrido[3,2-d]pyrimidin-4(3H)-one] came in with a melting point of 182.2 to 205.2 °C.
`Cn1c(-c2ccc(OCCCN3CCCC3)cc2)nc2ccccc2c1=O` [Example 16, 3-Methyl-2-[4-(3-pyrrolidin-1-ylpropoxy)phenyl]-4(3H)-quinazoline]: the “inhibition of the binding of N-alpha-methylhistamine (histamine analogue) to histamine-H3 receptor” value in data set [2] was “strongly inhibited”. Besides, the concentration at 30 min in data set [1] (cerebrospinal fluid, intravenous administration 3 mg/kg, in 30 minutes, read-out: concentration in the cerebrospinal fluid) worked out at 134 nM; in data set [1] (plasma, intravenous administration 3 mg/kg, in 30 minutes, read-out: concentration in the plasma) it was 1360 nM. The “concentration in the brain” value in data set [1] (intravenous administration 3 mg/kg, in 30 minutes) was 2.22 nmol/g.
